T1: hMIGA2long (Homo sapiens, UniProt Q7L4E1)
T1 construct: gene MIGA2; N-terminal 3xFLAG (Expi293F) and/or C-terminal His6 (E. coli), tags kept; dimer
T1 sequence (Q7L4E1 170-593): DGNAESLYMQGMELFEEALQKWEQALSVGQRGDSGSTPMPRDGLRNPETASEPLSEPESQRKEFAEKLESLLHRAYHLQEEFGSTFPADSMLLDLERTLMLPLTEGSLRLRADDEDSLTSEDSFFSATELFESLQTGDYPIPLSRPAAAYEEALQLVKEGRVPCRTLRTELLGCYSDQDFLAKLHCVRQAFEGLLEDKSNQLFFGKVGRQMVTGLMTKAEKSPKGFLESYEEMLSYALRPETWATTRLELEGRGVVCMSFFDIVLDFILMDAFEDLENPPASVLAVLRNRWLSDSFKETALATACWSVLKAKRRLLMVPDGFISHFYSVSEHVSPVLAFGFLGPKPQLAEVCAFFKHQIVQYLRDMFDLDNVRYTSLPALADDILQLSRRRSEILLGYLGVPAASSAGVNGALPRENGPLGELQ

T2: hMIGA2C (Homo sapiens, UniProt Q7L4E1)
T2 construct: gene MIGA2; C-terminal domain only, residues 306-593, C-terminal His6 kept, expressed in E. coli BL21(DE3); monomer by SEC
T2 sequence (Q7L4E1 306-593): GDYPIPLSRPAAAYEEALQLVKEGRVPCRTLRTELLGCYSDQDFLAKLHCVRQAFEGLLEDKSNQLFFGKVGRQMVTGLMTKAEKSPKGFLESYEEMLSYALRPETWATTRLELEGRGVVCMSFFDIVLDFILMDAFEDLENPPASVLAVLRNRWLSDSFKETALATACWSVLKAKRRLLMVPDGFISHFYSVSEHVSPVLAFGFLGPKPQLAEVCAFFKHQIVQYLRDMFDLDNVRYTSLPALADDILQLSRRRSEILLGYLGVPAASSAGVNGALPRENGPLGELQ

T3: hMIGA2long (Homo sapiens, UniProt Q7L4E1, R357N/S428G)
T3 construct: gene MIGA2; N-terminal 3xFLAG (Expi293F) and/or C-terminal His6 (E. coli), tags kept; dimer
T3 sequence (Q7L4E1 170-593 R357N/S428G): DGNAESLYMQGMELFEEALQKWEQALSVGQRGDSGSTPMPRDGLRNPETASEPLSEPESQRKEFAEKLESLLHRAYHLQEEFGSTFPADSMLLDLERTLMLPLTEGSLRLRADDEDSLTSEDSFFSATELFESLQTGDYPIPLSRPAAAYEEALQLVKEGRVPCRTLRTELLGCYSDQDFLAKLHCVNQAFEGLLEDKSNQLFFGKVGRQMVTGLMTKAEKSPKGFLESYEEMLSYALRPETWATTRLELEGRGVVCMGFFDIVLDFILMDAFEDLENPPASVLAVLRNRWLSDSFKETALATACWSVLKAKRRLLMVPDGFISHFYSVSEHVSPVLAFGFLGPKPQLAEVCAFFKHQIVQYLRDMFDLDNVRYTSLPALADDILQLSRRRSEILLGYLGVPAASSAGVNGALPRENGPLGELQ

T4: hMIGA2long (Homo sapiens, UniProt Q7L4E1, V381E/V502K/L506D/F524H)
T4 construct: gene MIGA2; N-terminal 3xFLAG (Expi293F) and/or C-terminal His6 (E. coli), tags kept; dimer
T4 sequence (Q7L4E1 170-593 V381E/V502K/L506D/F524H): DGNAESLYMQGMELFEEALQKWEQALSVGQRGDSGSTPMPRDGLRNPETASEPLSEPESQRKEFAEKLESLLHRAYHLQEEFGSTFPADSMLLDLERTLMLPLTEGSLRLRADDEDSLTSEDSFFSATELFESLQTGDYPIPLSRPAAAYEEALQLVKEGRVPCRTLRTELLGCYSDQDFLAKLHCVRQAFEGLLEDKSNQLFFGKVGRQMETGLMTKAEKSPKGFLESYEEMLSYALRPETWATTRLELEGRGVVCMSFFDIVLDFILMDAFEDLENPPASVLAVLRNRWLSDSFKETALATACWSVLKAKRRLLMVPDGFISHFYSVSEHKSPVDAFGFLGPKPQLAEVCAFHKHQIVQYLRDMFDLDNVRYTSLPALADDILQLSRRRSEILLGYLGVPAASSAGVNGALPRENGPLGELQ

T5: hMIGA2long (Homo sapiens, UniProt Q7L4E1, V376D/L438E/F495H/I528K)
T5 construct: gene MIGA2; N-terminal 3xFLAG (Expi293F) and/or C-terminal His6 (E. coli), tags kept; dimer
T5 sequence (Q7L4E1 170-593 V376D/L438E/F495H/I528K): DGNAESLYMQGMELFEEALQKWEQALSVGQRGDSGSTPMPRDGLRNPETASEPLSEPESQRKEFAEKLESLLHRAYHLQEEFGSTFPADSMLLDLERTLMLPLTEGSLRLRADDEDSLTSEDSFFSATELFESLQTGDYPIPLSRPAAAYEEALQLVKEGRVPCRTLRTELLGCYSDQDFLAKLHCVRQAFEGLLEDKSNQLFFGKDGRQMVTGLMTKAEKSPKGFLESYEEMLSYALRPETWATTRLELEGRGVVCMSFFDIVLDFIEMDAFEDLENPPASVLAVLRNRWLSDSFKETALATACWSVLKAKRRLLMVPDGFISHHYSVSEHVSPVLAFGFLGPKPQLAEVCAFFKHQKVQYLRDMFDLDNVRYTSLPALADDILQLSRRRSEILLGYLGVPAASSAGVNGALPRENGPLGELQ


Columns and labels:
hMIGA2long [1] = molecular target: T1, hMIGA2long; assay: native PAGE co-migration, NBD fluorescence; format: binding; conditions: labelled compound; on ice 2 h
hMIGA2C = molecular target: T2, hMIGA2C; assay: end-point lipid transfer between tethered liposomes; format: biochemical; conditions: labelled compound; 0.32 µM protein, 2% NBD-lipid in donor liposomes, 30 min
hMIGA2long [2] = molecular target: T3, hMIGA2long; assay: FRET lipid transfer between tethered liposomes; format: biochemical; conditions: labelled compound; 0.25 µM protein, 30°C; mutant M3, 3xFLAG and His6 tags
hMIGA2long [3] = molecular target: T4, hMIGA2long; assay: FRET lipid transfer between tethered liposomes; format: biochemical; conditions: labelled compound; 0.25 µM protein, 30°C; mutant M2, 3xFLAG and His6 tags
hMIGA2long [4] = molecular target: T5, hMIGA2long; assay: FRET lipid transfer between tethered liposomes; format: biochemical; conditions: labelled compound; 0.25 µM protein, 30°C; mutant M1, 3xFLAG and His6 tags
hMIGA2long [5] = molecular target: T1, hMIGA2long; assay: FRET lipid transfer between tethered liposomes; format: biochemical; conditions: labelled compound; 0.25 µM protein, 2% NBD-lipid in donor liposomes, 30°C
[6] = molecular target: human MIGA2 cytosolic fragment with part of the linker region (coiled-coil) and the C-terminal domain, C-terminal 6xhis (human) (UniProt Q7L4E1); assay: native MS; 200 mM ammonium acetate, 2 mM DTT; protein 1-5 μM; Q Exactive UHMR
[7] = molecular target: the molecule itself; assay: SEC; Superdex 200 16/60, with size standards

Molecule	native PAGE co-migration, NBD fluorescence (hMIGA2long [1])	end-point lipid transfer between tethered liposomes (hMIGA2C)	further results
CCCCCCCC/C=C\CCCCCCCC(=O)OC[C@H](COP(=O)(O)O)OC(=O)CCCCCCCCCCCNc1ccc([N+](=O)[O-])c2nonc12 [NBD-PAacyl]	Phospholipids (NBD-PAacyl, NBD-PCacyl NBD-PShead, NBD-PEacyl) visualized by their fluorescence, comigrated with protein	Both hMIGA2long and hMIGA2C transport NBD-PEacyl, -PSacyl, -PAacyl, and NBD-PCacyl	
CCCCCCCC/C=C\CCCCCCCC(=O)OC[C@H](COP(=O)([O-])OCC[N+](C)(C)C)OC(=O)CCCCCCCCCCCNc1ccc([N+](=O)[O-])c2nonc12 [NBD-PCacyl]	Phospholipids (NBD-PAacyl, NBD-PCacyl NBD-PShead, NBD-PEacyl) visualized by their fluorescence, comigrated with protein	Both hMIGA2long and hMIGA2C transport NBD-PEacyl, -PSacyl, -PAacyl, and NBD-PCacyl	
CCCCCCCC/C=C\CCCCCCCC(=O)OC[C@H](COP(=O)(O)OCCN)OC(=O)CCCCCCCCCCCNc1ccc([N+](=O)[O-])c2nonc12 [NBD-PEacyl]	Phospholipids (NBD-PAacyl, NBD-PCacyl NBD-PShead, NBD-PEacyl) visualized by their fluorescence, comigrated with protein	Both hMIGA2long and hMIGA2C transport NBD-PEacyl, -PSacyl, -PAacyl, and NBD-PCacyl	lipid transfer impaired (hMIGA2long [2]): all three mutant constructs (M1, M2, M3) are lipid transfer impaired; lipid transfer impaired (hMIGA2long [3]): all three mutant constructs (M1, M2, M3) are lipid transfer impaired; lipid transfer impaired (hMIGA2long [4]): all three mutant constructs (M1, M2, M3) are lipid transfer impaired
CCCCCCCC/C=C\CCCCCCCC(=O)OC[C@H](COP(=O)(O)OC[C@H](N)C(=O)O)OC(=O)CCCCCCCCCCCNc1ccc([N+](=O)[O-])c2nonc12 [NBD-PSacyl]		Both hMIGA2long and hMIGA2C transport NBD-PEacyl, -PSacyl, -PAacyl, and NBD-PCacyl	FRET lipid transfer between tethered liposomes (hMIGA2long [5]): hMIGA2long can transport NBD-PSacyl, NBD-PAacyl, NBD-PEacyl, and NBD-PCacyl
CCCCCCCC/C=C\CCCCCCCC(=O)OC[C@H](COP(=O)(O)OC[C@H](Nc1ccc([N+](=O)[O-])c2nonc12)C(=O)O)OC(=O)CCCCCCC/C=C\CCCCCCCC [NBD-PShead]	Phospholipids (NBD-PAacyl, NBD-PCacyl NBD-PShead, NBD-PEacyl) visualized by their fluorescence, comigrated with protein		
human MIGA2 cytosolic fragment with part of the linker region (coiled-coil) and the C-terminal domain, C-terminal 6xhis (from UniProt Q7L4E1 170-593) (domain or fragment)			stoichiometry N [6]: 2
C. elegans MIGA2 cytosolic fragment with the coiled-coil of the linker region and the C-terminal domain (residues 106-496) (domain or fragment, UniProt Q21096 106-496, looked up, C. elegans MIGA (mitoguardin homolog), Uniprot Q21096, residues 106-496: coiled-coil segment of the linker region and the C-terminal domain; Co-purifies with glycerophospholipid from E. coli; Plasmids of the study are in Addgene (192832, 192833, 192834, 192835, 192837, 192866, 192867); also called CeMIGA2_(long); CeMIGA_(long); source: E. coli C43 (DE3), purified (Ni-NTA, sumo protease, second …)) SMNPIEADITSGQELCTELRKTIEKVHHNLEMVKNRSSKDMERSIKIEGILKGLKQVEDEIVLLVPQMEDFRDDNMEFYSVSGGSGYAGSVRTGRSRTLSVLSDDSFRSAVEEFACDIDDIDFVSDAANLDKNELRFLDEGMQAALNGEVKYRKSRMEFCKCDSETDFAAKLYCVRQALTNALKDEHKRVWLAKCGRTLLADFIRHTKQDPVKFFNAYDEMLEYVSNDRNEEQLRQDVEGRGVCETGFYDVAIDFIILDAFEDLKSPPSAVYSVTKNYFMSMSMKYSTLNTIIWSIIKSKRQRLKNPDGFIAKFYNISETVMPAITLGFLGTDERLGELCQYFKEQVVQFVLDVFNTQKVCYRSLEEMSEDVWIVMRNRLEAVQTRMSNEL			stoichiometry N [7]: 2

— paper PMC9597353, “Mitoguardin-2–mediated lipid transfer preserves mitochondrial morphology and lipid droplet formation” (The Journal of Cell Biology, 2022)
